{
  "source": "paper PMC7604827",
  "about": "(Bioorganic & medicinal chemistry, 2011)",
  "key": {"[1]": {"system": "cell–cell fusion reaction between target cells expressing CD4/CCR5 and effector cells expressing the envelope protein of HIV-1", "assay_type": "cell-based"}, "[2]": {"conditions": "pH 6.8; cited from earlier work"}, "[3]": {"conditions": "rat, 10 mg/kg, po"}, "human CCR5 [4]": {"target": "T1, human CCR5 (Homo sapiens, UniProt P51681)", "T1 sequence (P51681 whole entry)": "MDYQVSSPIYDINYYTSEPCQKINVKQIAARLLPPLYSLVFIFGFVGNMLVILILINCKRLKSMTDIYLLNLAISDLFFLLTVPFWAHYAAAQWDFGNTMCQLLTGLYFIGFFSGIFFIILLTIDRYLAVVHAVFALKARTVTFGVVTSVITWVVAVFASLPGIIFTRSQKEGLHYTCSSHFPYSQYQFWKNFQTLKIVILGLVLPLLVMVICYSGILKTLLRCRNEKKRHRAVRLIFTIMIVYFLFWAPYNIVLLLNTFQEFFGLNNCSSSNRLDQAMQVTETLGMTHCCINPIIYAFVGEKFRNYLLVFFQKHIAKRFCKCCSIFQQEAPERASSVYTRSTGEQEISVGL", "conditions": "(3R,1′R)-configuration versus other stereoisomers; cited from earlier work"}, "CCR5/hRANTES": {"target": "CCR5/hRANTES (Cavia porcellus, UniProt A0A286Y1F6)", "sequence (A0A286Y1F6 1-353)": "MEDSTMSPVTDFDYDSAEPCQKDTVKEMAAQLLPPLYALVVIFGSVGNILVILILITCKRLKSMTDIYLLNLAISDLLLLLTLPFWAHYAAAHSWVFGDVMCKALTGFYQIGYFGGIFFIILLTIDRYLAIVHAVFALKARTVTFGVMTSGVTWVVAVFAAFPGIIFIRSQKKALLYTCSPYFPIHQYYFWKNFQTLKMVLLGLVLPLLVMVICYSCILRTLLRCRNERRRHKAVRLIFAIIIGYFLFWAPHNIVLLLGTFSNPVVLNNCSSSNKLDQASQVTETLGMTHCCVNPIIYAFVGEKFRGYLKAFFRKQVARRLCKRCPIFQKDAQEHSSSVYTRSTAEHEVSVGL", "conditions": "read-out: CCR5/hRANTES Ca assay IC50; Guinea pig"}, "[5]": {"system": "broad panel of receptors and transporters including the other chemokines", "assay": "Broad panel of receptors and transporters including the other chemokines"}, "[6]": {"conditions": "up to the dosage of 100 mg/kg, po"}, "in vivo": {"assay": "in vivo", "conditions": "rat, po, 10 mg/kg"}, "human CCR5 [7]": {"target": "T1, human CCR5", "assay_type": "cell-based"}, "HIV-1Ba-L (R5)": {"system": "HIV-1Ba-L (R5)", "conditions": "inhibition of HIV p24 antigen expression in PBMC, mean ± SD, triplicate"}, "HIV-1MM (R5MDR)": {"system": "HIV-1MM (R5MDR)", "conditions": "read-out: Anti-HIV-1 activity HIV-1MM (R5MDR) IC50 ± SD; inhibition of HIV p24 antigen expression in PBMC, mean ± SD, triplicate"}},
  "note": "Where a name gives a salt, the structure may show the parent alone. Read-outs that look alike come from different tables or passages of the source.",
  "data": [
    {"molecule": "CCCCN1C(=O)[C@@H](C(O)C2CCC(O)CC2)NC(=O)C12CCN(Cc1ccc(Oc3ccc(C(=O)O)cc3)cc1)CC2", "note": "(stereo in doubt) [Compound 20b, 4-[4-({(3R)-1-Butyl-3-[(R)-hydroxy(4-hydroxycyclohexyl)methyl]-2,5-dioxo-1,4,9-triazaspiro[5.5]undec-9-yl}methyl)phenoxy]benzoic acid hydrochloride]", "values": [
      {"measurement": "IC50", "setting": "[1]; read-out: Fusion assay IC50", "value": 129, "unit": "nM"}
    ]},
    {"molecule": "CCCCN1C(=O)C(C(C)C)NC(=O)C12CCN(Cc1ccc(Oc3ccccc3)cc1)CC2.Cl", "note": "(stereo not drawn) [Compound 1]", "values": [
      {"measurement": "aqueous solubility", "setting": "[2]", "value": "less than 0.2 μg/ml"},
      {"measurement": "BA", "setting": "[3]", "value": 1.3, "unit": "%"}
    ]},
    {"molecule": "CCCCN1C(=O)C(CC2CCCCC2)NC(=O)C12CCN(Cc1ccc(Oc3ccc(C(=O)NC)cc3)cc1)CC2.Cl", "note": "(stereo not drawn) [Compound 2]", "values": [
      {"measurement": "BA", "setting": "[3]", "value": 1.9, "unit": "%"}
    ]},
    {"molecule": "CCCCN1C(=O)[C@@H]([C@H](O)C(C)C)NC(=O)C12CCN(Cc1ccc(Oc3ccccc3)cc1)CC2.Cl", "note": "[Compound 3]", "values": [
      {"measurement": "fold more potency than the other stereoisomers in the Ca assay", "setting": "human CCR5 [4]", "value": "4.5–12 fold"}
    ]},
    {"molecule": "CCCCN1C(=O)[C@H](CC2CCCCC2)NC(=O)C12CCN(Cc1ccc(Oc3ccc(C(=O)O)cc3)cc1)CC2.Cl", "note": "[Compound 5]", "values": [
      {"measurement": "BA", "setting": "[3]", "value": 34, "unit": "%"}
    ]},
    {"molecule": "CCCCN1C(=O)[C@@H]([C@H](O)C2CCCCC2)NC(=O)C12CCN(Cc1ccc(Oc3ccc(C(=O)O)cc3)cc1)CC2.Cl", "note": "[Compound 6a, 4-[4-({(3R)-1-Butyl-3-[(R)-cyclohexyl(hydroxy)methyl]-2,5-dioxo-1,4,9-triazaspiro[5.5]undec-9-yl}methyl)phenoxy]benzoic acid hydrochloride]", "values": [
      {"measurement": "IC50", "setting": "CCR5/hRANTES", "value": "> 30000", "unit": "nM"},
      {"measurement": "AMES test result", "setting": "AMES test", "value": "did not show any significant safety problem"},
      {"measurement": "activity against a broad panel of receptors and transporters", "setting": "[5]", "value": "no significant activity"},
      {"measurement": "BA", "setting": "[3]", "value": 23, "unit": "%"},
      {"measurement": "14-day rat safety study result", "setting": "[6]", "value": "did not show any significant safety problem"}
    ]},
    {"molecule": "CCCCN1C(=O)[C@@H]([C@H](O)C2CCCCC2)NC(=O)C12CCN(Cc1ccc(Oc3ccc(O)cc3)cc1)CC2", "note": "[Compound 8, (3R)-1-Butyl-3-[(R)-cyclohexyl(hydroxy)methyl]-9-[4-(4-hydroxyphenoxy)benzyl]-1,4,9-triazaspiro[5.5]undecane-2,5-dione hydrochloride]", "values": [
      {"measurement": "IC50", "setting": "[1]; read-out: Fusion assay IC50", "value": 2.8, "unit": "nM"}
    ]},
    {"molecule": "CCCCN1C(=O)[C@@H]([C@H](O)C2CCCCC2)NC(=O)C12CCN(Cc1ccc(Oc3ccc(C(=O)NC)cc3)cc1)CC2.Cl", "note": "[Compound 10, 4-[4-({(3R)-1-Butyl-3-[(R)-cyclohexyl(hydroxy)methyl]-2,5-dioxo-1,4,9-triazaspiro[5.5]undec-9-yl}methyl)phenoxy]-N-methylbenzamide hydrochloride]", "values": [
      {"measurement": "AUC", "setting": "in vivo", "value": 1300, "unit": "ng·h/mL"},
      {"measurement": "Cmax", "setting": "in vivo", "value": 333, "unit": "ng/mL"},
      {"measurement": "BA", "setting": "[3]", "value": 10, "unit": "%"}
    ]},
    {"molecule": "CCCCN1C(=O)[C@@H]([C@H](O)C2CCCCC2)NC(=O)C12CCN(Cc1ccc(Oc3ccc(NS(C)(=O)=O)cc3)cc1)CC2.Cl", "note": "[Compound 13, N-{4-[4-({(3R)-1-Butyl-3-[(R)-cyclohexyl (hydroxy)methyl]-2,5-dioxo-1,4,9-triazaspiro[5.5]undec-9-yl}methyl)phenoxy]phenyl}methanesulfonamide hydrochloride]", "values": [
      {"measurement": "AUC", "setting": "in vivo", "value": 242, "unit": "ng·h/mL"},
      {"measurement": "Cmax", "setting": "in vivo", "value": 50, "unit": "ng/mL"},
      {"measurement": "BA", "setting": "[3]", "value": 5, "unit": "%"}
    ]},
    {"molecule": "CCCCN1C(=O)[C@@H]([C@H](O)C(C)C)NC(=O)C12CCN(Cc1ccc(Oc3ccc(C(=O)O)cc3)cc1)CC2.Cl", "note": "[Compound 14, 4-[4-({(3R)-1-Butyl-3-[(1R)-1-hydroxy-2-methylpropyl]-2,5-dioxo-1,4,9-triazaspiro[5.5]undec-9-yl}methyl)phenoxy]benzoic acid hydrochloride]", "values": [
      {"measurement": "AUC", "setting": "in vivo", "value": 150, "unit": "ng·h/mL"},
      {"measurement": "BA", "setting": "[3]", "value": 5.9, "unit": "%"}
    ]},
    {"molecule": "CCCCN1C(=O)[C@@H]([C@H](O)C2CCOCC2)NC(=O)C12CCN(Cc1ccc(Oc3ccc(C(=O)O)cc3)cc1)CC2", "note": "[Compound 19, 4-[4-({(3R)-1-Butyl-3-[(R)-hydroxy(tetrahydro-2H-pyran-4-yl)methyl]-2,5-dioxo-1,4,9-triazaspiro[5.5]undec-9-yl}methyl)phenoxy]benzoic acid hydrochloride]", "values": [
      {"measurement": "IC50", "setting": "[1]; read-out: Fusion assay IC50", "value": 302, "unit": "nM"}
    ]},
    {"molecule": "CCCCN1C(=O)[C@@H]([C@H](O)C2CCC(O)CC2)NC(=O)C12CCN(Cc1ccc(Oc3ccc(C(=O)O)cc3)cc1)CC2", "note": "(stereo partly drawn) [Compound 20a, 4-[4-({(3R)-1-Butyl-3-[(R)-hydroxy(4-hydroxycyclohexyl)methyl]-2,5-dioxo-1,4,9-triazaspiro[5.5]undec-9-yl}methyl)phenoxy]benzoic acid hydrochloride]", "values": [
      {"measurement": "IC50", "setting": "[1]; read-out: Fusion assay IC50", "value": 537, "unit": "nM"}
    ]},
    {"molecule": "CNC(=O)c1ccc(Oc2ccc(CN3CCC4(CC3)C(=O)N[C@H]([C@H](O)C3CCCCC3)C(=O)N4C)cc2)cc1", "note": "[Compound 22, 4-[4-({(3R)-3-[(R)-Cyclohexyl(hydroxy)methyl]-1-methyl-2,5-dioxo-1,4,9-triazaspiro[5.5]undec-9-yl}methyl)phenoxy]-N-methylbenzamide hydrochloride]", "values": [
      {"measurement": "IC50", "setting": "[1]; read-out: Fusion assay", "value": 1860, "unit": "nM"}
    ]},
    {"molecule": "CCCN1C(=O)[C@@H]([C@H](O)C2CCCCC2)NC(=O)C12CCN(Cc1ccc(Oc3ccc(C(=O)O)cc3)cc1)CC2", "note": "[Compound 25, 4-[4-({(3R)-3-[(R)-Cyclohexyl(hydroxy)methyl]-2,5-dioxo-1-propyl-1,4,9-triazaspiro[5.5]undec-9-yl}methyl)phenoxy]benzoic acid hydrochloride]", "values": [
      {"measurement": "IC50", "setting": "[1]; read-out: Fusion assay", "value": 112, "unit": "nM"}
    ]},
    {"molecule": "CCCN1C(=O)[C@@H]([C@H](O)C2CCCCC2)NC(=O)C12CCN(Cc1ccc(Oc3ccc(C(=O)NC)cc3)cc1)CC2.Cl", "note": "[Compound 26, 4-[4-({(3R)-3-[(R)-Cyclohexyl(hydroxy)methyl]-2,5-dioxo-1-propyl-1,4,9-triazaspiro[5.5]undec-9-yl}methyl)phenoxy]-N-methylbenzamide hydrochloride]", "values": [
      {"measurement": "AUC", "setting": "in vivo", "value": 513, "unit": "ng·h/mL"},
      {"measurement": "Cmax", "setting": "in vivo", "value": 133, "unit": "ng/mL"},
      {"measurement": "BA", "setting": "[3]", "value": 11.2, "unit": "%"}
    ]},
    {"molecule": "CNC(=O)c1ccc(Oc2ccc(CN3CCC4(CC3)C(=O)N[C@H]([C@H](O)C3CCCCC3)C(=O)N4CCC(C)O)cc2)cc1", "note": "(stereo partly drawn) [Compound 30, 4-(4-{[(3R)-3-[(R)-Cyclohexyl(hydroxy)methyl]-1-(3-hydroxybutyl)-2,5-dioxo-1,4,9-triazaspiro[5.5]undec-9-yl]methyl}phenoxy)-N-methylbenzamide hydrochloride]", "values": [
      {"measurement": "IC50", "setting": "[1]; read-out: Fusion assay", "value": "~10000", "unit": "nM"}
    ]},
    {"molecule": "CNC(=O)c1ccc(Oc2ccc(CN3CCC4(CC3)C(=O)N[C@H]([C@H](O)C3CCCCC3)C(=O)N4CCN)cc2)cc1.Cl.Cl", "note": "[Compound 32, 4-[4-({(3R)-1-(2-Aminoethyl)-3-[(R)-cyclohexyl(hydroxy)methyl]-2,5-dioxo-1,4,9-triazaspiro[5.5]undec-9-yl}methyl)phenoxy]-N-methylbenzamide dihydrochloride]", "values": [
      {"measurement": "fold less potent antagonist activity relative to 10", "setting": "human CCR5 [7]", "value": "> 10", "unit": "fold"}
    ]},
    {"molecule": "CNC(=O)c1ccc(Oc2ccc(CN3CCC4(CC3)C(=O)N[C@H]([C@H](O)C3CCCCC3)C(=O)N4CCN(C)C)cc2)cc1.Cl.Cl", "note": "[Compound 33, 4-[4-({(3R)-3-[(R)-Cyclohexyl(hydroxy)methyl]-1-[2-(dimethylamino)ethyl]-2,5-dioxo-1,4,9-triazaspiro[5.5]undec-9-yl}methyl)phenoxy]-N-methylbenzamide dihydrochloride]", "values": [
      {"measurement": "fold less potent antagonist activity relative to 10", "setting": "human CCR5 [7]", "value": "> 10", "unit": "fold"}
    ]},
    {"molecule": "SCH-351125", "values": [
      {"measurement": "IC50", "setting": "HIV-1Ba-L (R5); read-out: Anti-HIV-1 activity HIV-1Ba-L (R5) IC50 ± SD", "value": "4 ± 2", "unit": "nM"},
      {"measurement": "IC90", "setting": "HIV-1Ba-L (R5); read-out: Anti-HIV-1 activity HIV-1Ba-L (R5) IC90 ± SD", "value": "79 ± 52", "unit": "nM"},
      {"measurement": "IC50", "setting": "HIV-1MM (R5MDR)", "value": "3 ± 0.5", "unit": "nM"}
    ]}
  ]
}
